Data reported in patent publication US11136296B2, “Substituted N-arylethyl-2-arylquinoline-4-carboxamides and use thereof” (Bayer Aktiengesellschaft, priority 2017, dated 2021).

The compounds below were run against FP receptor (Homo sapiens (Human), UniProt P43088) (assay: In vitro test of inhibition of human FP receptor activity (PGF2α-induced calcium flux in FP-expressing CHEM1 cells)). Settings: PGF2α-induced (2 nM) calcium flux in FP-expressing CHEM1 cells; some as mean values from multiple determinations.
Chain of FP receptor (P43088 whole entry): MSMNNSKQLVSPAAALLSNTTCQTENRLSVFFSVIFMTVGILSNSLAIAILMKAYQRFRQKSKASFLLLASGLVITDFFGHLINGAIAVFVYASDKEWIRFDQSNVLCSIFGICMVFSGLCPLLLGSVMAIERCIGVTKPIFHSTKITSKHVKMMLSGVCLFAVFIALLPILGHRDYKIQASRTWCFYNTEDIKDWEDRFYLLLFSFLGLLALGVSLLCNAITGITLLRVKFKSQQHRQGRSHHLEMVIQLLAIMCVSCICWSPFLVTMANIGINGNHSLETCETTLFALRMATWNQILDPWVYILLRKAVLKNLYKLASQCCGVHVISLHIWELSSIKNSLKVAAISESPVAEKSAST
Format: cell-based
Source text: Table 1 below lists the IC50 values from this assay for individual working examples of the invention (some as mean values from multiple independent individual determinations): […]

Row | IC50 | SMILES
1 | 3.5 nM | Cc1c(-c2ccccc2)nc2ccc(Br)cc2c1C(=O)NCC(CCC(=O)O)c1c(F)cccc1Cl (single isomer, unassigned; (-)) [Example 158, (−)-5-{[(6-Bromo-3-methyl-2-phenylquinolin-4-yl)carbonyl]amino}-4-(2-chloro-6-fluorophenyl)pentanoic Acid]
2 | 8.2 nM | Cc1ccccc1C(CCC(=O)O)CNC(=O)c1c(C)c(-c2ccccc2)nc2ccc(Br)cc12 (single isomer, unassigned; (-)) [Example 161, (−)-5-{[(6-Bromo-3-methyl-2-phenylquinolin-4-yl)carbonyl]amino}-4-(2-methylphenyl)pentanoic Acid]
3 | 15 nM | Cc1c(-c2ccccc2)nc2ccc(Br)cc2c1C(=O)NCC(CCC(=O)O)c1cc(F)ccc1Cl (single isomer, unassigned; (-)) [Example 164, (−)-5-{[(6-Bromo-3-methyl-2-phenylquinolin-4-yl)carbonyl]amino}-4-(2-chloro-5-fluorophenyl)pentanoic Acid]
4 | 26 nM | COc1ccccc1C(CCC(=O)O)CNC(=O)c1c(C)c(-c2ccccc2)nc2ccc(Br)cc12 (single isomer, unassigned; (-)) [Example 167, (−)-5-{[(6-Bromo-3-methyl-2-phenylquinolin-4-yl)carbonyl]amino}-4-(2-methoxyphenyl)pentanoic Acid]
5 | 12 nM | Cc1c(-c2ccccc2)nc2ccc(Br)cc2c1C(=O)NCC(CCC(=O)O)c1ccccc1F (single isomer, unassigned; (-)) [Example 176, (−)-5-{[(6-Bromo-3-methyl-2-phenylquinolin-4-yl)carbonyl]amino}-4-(2-fluorophenyl)pentanoic Acid]
6 | 4.1 nM | Cc1c(-c2ccccc2)nc2ccc(Br)cc2c1C(=O)NCC(CCC(=O)O)c1ccccc1OC(F)F (single isomer, unassigned; (-)) [Example 179, (−)-5-{[(6-Bromo-3-methyl-2-phenylquinolin-4-yl)carbonyl]amino}-4-[2-(difluoromethoxy)phenyl]pentanoic Acid]
7 | 7.2 nM | Cc1c(-c2ccccc2)nc2ccc(Br)cc2c1C(=O)NCC(CCC(=O)O)c1c(F)cccc1F (single isomer, unassigned; (-)) [Example 182, (−)-5-{[(6-Bromo-3-methyl-2-phenylquinolin-4-yl)carbonyl]amino}-4-(2,6-difluorophenyl)pentanoic Acid]
8 | 3.9 nM | Cc1c(-c2ccccc2)nc2ccc(Br)cc2c1C(=O)NCC(CCC(=O)O)c1cccc(F)c1Cl (single isomer, unassigned; (-)) [Example 185, (−)-5-{[(6-Bromo-3-methyl-2-phenylquinolin-4-yl)carbonyl]amino}-4-(2-chloro-3-fluorophenyl)pentanoic Acid]
9 | 1.2 nM | Cc1c(-c2ccccc2)nc2ccc(Br)cc2c1C(=O)NCC(CCC(=O)O)c1c(Cl)ccc(F)c1F (single isomer, unassigned; (-)) [Example 201, (−)-5-{[(6-Bromo-3-methyl-2-phenylquinolin-4-yl)carbonyl]amino}-4-(6-chloro-2,3-difluorophenyl)pentanoic Acid]
10 | 3.7 nM | Cc1c(-c2ccccc2)nc2ccc(Br)cc2c1C(=O)NCC(CCC(=O)O)c1ccccc1C(F)(F)F (single isomer, unassigned; (-)) [Example 204, (−)-5-{[(6-Bromo-3-methyl-2-phenylquinolin-4-yl)carbonyl]amino}-4-[2-(trifluoromethyl)phenyl]pentanoic Acid]
11 | 10 nM | Cc1ccc(F)cc1C(CCC(=O)O)CNC(=O)c1c(C)c(-c2ccccc2)nc2ccc(Br)cc12 (single isomer, unassigned; (-)) [Example 207, (−)-5-{[(6-Bromo-3-methyl-2-phenylquinolin-4-yl)carbonyl]amino}-4-(5-fluoro-2-methylphenyl)pentanoic Acid]
12 | 2.8 nM | O=C(O)CCC(CNC(=O)c1c(Cl)c(-c2ccccc2)nc2ccc(Br)cc12)c1ccccc1Cl (single isomer, unassigned; (-)) [Example 213, (−)-5-{[(6-Bromo-3-chloro-2-phenylquinolin-4-yl)carbonyl]amino}-4-(2-chlorophenyl)pentanoic Acid]

Further lines, the compound ahead of its results:

Row | SMILES | IC50
13 | Cc1c(-c2ccccc2)nc2ccc(Br)cc2c1C(=O)NC(C)C(CC(=O)O)c1ccccc1Cl (single isomer, unassigned; (-)) [Example 149, (−)-4-{[(6-Bromo-3-methyl-2-phenylquinolin-4-yl)carbonyl]amino}-3-(2-chlorophenyl)pentanoic Acid] | > 1000 nM
14 | Cc1c(-c2ccccc2)nc2ccc(Br)cc2c1C(=O)NCC(CCC(=O)O)c1ccccc1Cl (single isomer, unassigned; (-)) [Example 152, (−)-5-{[(6-Bromo-3-methyl-2-phenylquinolin-4-yl)carbonyl]amino}-4-(2-chlorophenyl)pentanoic Acid] | 7.9 nM
15 | Cc1c(-c2ccccc2)nc2ccc(Br)cc2c1C(=O)NCC(C)(CCC(=O)O)c1ccccc1Cl (single isomer, unassigned; (-)) [Example 155, (−)-5-{[(6-Bromo-3-methyl-2-phenylquinolin-4-yl)carbonyl]amino}-4-(2-chlorophenyl)-4-methylpentanoic Acid] | 60 nM
16 | Cc1c(-c2ccccc2)nc2ccc(Br)cc2c1C(=O)NCC(C)(CCC(=O)O)c1cc(F)ccc1Cl (single isomer, unassigned; (-)) [Example 170, (−)-5-{[(6-Bromo-3-methyl-2-phenylquinolin-4-yl)carbonyl]amino}-4-(2-chloro-5-fluorophenyl)-4-methylpentanoic Acid] | 110 nM
17 | Cc1c(-c2ccccc2)nc2ccc(Br)cc2c1C(=O)NCC(c1ccccc1Cl)N(C)CC(=O)O (single isomer, unassigned; (-)) [Example 188, (−)-N-[2-{[(6-Bromo-3-methyl-2-phenylquinolin-4-yl)carbonyl]amino}-1-(2-chlorophenyl)ethyl]-N-methylglycine] | 54 nM
18 | Cc1c(-c2ccccc2)nc2ccc(Br)cc2c1C(=O)NCC(OCC(=O)O)c1ccccc1Cl (single isomer, unassigned; (-)) [Example 193, (−)-[2-{[(6-Bromo-3-methyl-2-phenylquinolin-4-yl)carbonyl]amino}-1-(2-chlorophenyl)ethoxy]acetic Acid] | 150 nM
19 | Cc1c(-c2ccccc2)nc2ccc(Br)cc2c1C(=O)NCC(SCC(=O)O)c1ccccc1Cl (single isomer, unassigned; (-)) [Example 196, (−)-{[2-{[(6-Bromo-3-methyl-2-phenylquinolin-4-yl)carbonyl]amino}-1-(2-chlorophenyl)ethyl]sulfanyl}acetic Acid] | 12 nM
20 | Cc1c(-c2ccccc2)nc2ccc(Br)cc2c1C(=O)NCC(CCC(=O)O)c1ccccc1OC(F)(F)F (single isomer, unassigned; (-)) [Example 211, (−)-5-{[(6-Bromo-3-methyl-2-phenylquinolin-4-yl)carbonyl]amino}-4-[2-(trifluoromethoxy)phenyl]pentanoic Acid] | 1.7 nM
21 | O=C(O)CCC(CNC(=O)c1c(Cl)c(-c2ccccc2)nc2ccc(Br)cc12)c1ccccc1C(F)(F)F (single isomer, unassigned; (-)) [Example 216, (−)-5-{[(6-Bromo-3-chloro-2-phenylquinolin-4-yl)carbonyl]amino}-4-[2-(trifluoromethyl)phenyl]pentanoic Acid] | 5 nM
